Data on eight compounds can be found in BindingDB's records for doi:10.3109/14756366.2010.504674 (University of Bonn, 2011).

The term IC50 denotes the concentration needed to halve the response being measured. Low readings indicate inhibition by little substance, high ones a need for much substance. A word on the Ki: it is the dissociation constant of the complex between target and ligand, obtained from inhibition or displacement.

Structures are written as SMILES.

What all share (experiment): Cholinesterase Inhibition Assay
What all share (details): pH 7.3; 25 °C

The target in assay [1] is Acetylcholinesterase (Homo sapiens, UniProt P22303). The protocol:
(§1) Cholinesterase inhibition was assayed spectrophotometrically at 412 nm at 25°C [Pietsch et al., J. Med. Chem., 48:8270-8288; Ellman et al., Biochem. Pharmacol., 7:88-95]. Product formation was monitored over 5 min. Assay buffer was 100 mM sodium phosphate, 100 mM NaCl, pH 7.3. Enzyme stock solutions were prepared with assay buffer in the following concentrations ∼ 100 U/mL (EeAChE),∼ 3 U/mL (hAChE), ∼ 10 U/mL (hBChE), and were kept at 0°C. Appropriate dilutions of the EeAChE (1:30) and hBChE (1:10) solutions were done immediatelybefore starting the measurements. Solutions of ATCh (5, 10, 15, or 20 mM), BTCh (10 mM), and DTNB (7 mM) were prepared in assay buffer and kept at 0°C. Stock solutions of the inhibitors were prepared in acetonitrile. EeAChE was assayed as follows. Into a cuvette containing 830 μL assay buffer, 50 μL of the DTNB solution, 50 μL acetonitrile, 10 μL of an inhibitor solution, and 10 μL of an enzyme solution were added and thoroughly mixed. After incubation for 15 minat 25°C, the reaction was initiated by adding 50 μL of the ATCh solution. The following final concentration were used, ∼ 0.033 U/mL of EeAChE, 250, 500, 750, or 1000 μM of ATCh, 350 μM of DTNB, 6% acetonitrile. Similarly, hAChE (final concentration ∼ 0.03 U/mL) was assayed with 500 μM ATCh, and hBChE (finalconcentration ∼ 0.01 U/mL) with 500 μM BTCh. The rates of enzyme-catalyzed substrate hydrolysis were corrected by those of the non-enzymatic hydrolysis ofATCh or BTCh, respectively, as determined by using 10 μL of assay buffer, instead of the enzyme solution. A Km value of 550 μM19 for the substrate ATCh used in the EeAChE assay was taken for kinetic analyses.

The target of assay [2] is Cholinesterase (Homo sapiens, UniProt P06276). The protocol:
as §1

In assay [3] the target is Acetylcholinesterase (Electrophorus electricus, UniProt O42275). The protocol: as §1
Chain of Acetylcholinesterase (Electrophorus electricus, UniProt O42275) (O42275 whole entry): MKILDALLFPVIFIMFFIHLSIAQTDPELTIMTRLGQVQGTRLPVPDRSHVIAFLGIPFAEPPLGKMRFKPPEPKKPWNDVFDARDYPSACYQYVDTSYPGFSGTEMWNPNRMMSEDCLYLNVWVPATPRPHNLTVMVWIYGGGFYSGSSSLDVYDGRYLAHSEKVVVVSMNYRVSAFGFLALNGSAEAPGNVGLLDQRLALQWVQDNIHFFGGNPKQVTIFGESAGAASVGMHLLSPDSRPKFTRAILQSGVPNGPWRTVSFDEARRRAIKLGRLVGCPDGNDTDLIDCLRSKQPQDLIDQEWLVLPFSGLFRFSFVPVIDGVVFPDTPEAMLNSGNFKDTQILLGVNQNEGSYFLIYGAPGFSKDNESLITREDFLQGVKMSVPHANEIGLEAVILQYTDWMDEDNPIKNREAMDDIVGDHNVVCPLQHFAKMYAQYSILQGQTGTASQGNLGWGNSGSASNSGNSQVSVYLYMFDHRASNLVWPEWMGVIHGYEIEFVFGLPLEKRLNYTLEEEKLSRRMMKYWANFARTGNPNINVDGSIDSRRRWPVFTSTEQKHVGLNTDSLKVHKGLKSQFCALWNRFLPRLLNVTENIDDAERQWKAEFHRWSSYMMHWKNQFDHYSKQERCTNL

Chain of Cholinesterase (P06276 whole entry): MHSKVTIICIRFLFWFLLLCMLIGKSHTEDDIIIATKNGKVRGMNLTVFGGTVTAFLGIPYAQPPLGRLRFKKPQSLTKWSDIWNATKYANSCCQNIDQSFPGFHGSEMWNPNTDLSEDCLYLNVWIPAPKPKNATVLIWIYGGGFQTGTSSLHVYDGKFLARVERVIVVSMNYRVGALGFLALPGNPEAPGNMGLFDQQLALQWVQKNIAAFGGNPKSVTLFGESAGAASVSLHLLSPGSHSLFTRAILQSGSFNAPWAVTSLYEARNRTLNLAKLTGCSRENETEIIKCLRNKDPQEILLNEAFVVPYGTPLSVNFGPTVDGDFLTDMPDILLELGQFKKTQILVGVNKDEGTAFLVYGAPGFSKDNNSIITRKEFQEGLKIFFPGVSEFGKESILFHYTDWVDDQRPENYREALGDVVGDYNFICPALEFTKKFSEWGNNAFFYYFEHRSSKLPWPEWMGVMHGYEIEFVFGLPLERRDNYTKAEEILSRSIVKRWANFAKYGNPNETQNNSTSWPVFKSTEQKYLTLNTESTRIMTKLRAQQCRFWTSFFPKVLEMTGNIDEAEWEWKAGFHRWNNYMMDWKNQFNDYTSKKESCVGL
Chain of Acetylcholinesterase (Homo sapiens, UniProt P22303) (P22303 whole entry): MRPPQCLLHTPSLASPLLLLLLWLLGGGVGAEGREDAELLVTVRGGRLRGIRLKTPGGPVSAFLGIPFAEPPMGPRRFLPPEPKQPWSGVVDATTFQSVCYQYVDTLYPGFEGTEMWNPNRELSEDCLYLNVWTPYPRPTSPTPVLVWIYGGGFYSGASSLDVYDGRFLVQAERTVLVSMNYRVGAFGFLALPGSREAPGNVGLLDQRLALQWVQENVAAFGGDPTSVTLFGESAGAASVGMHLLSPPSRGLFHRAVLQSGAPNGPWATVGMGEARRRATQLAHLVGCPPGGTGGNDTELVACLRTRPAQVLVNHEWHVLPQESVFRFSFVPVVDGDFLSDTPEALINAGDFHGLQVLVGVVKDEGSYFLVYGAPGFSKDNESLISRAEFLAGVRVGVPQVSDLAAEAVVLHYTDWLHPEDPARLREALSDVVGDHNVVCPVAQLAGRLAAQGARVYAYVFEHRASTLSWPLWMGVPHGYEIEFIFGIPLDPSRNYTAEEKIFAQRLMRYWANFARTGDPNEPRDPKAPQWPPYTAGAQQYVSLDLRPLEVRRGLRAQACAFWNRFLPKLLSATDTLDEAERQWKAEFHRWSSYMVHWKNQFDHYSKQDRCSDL

As for `O=C1c2c(sc3c2CCCC3)NC2=NCCN12` [2,3,6,7,8,9-Hexahydro-benzothieno[2,3-d]-imidazo[1,2-a]pyrimidin-5(11H)-one (7)], the IC50 is more than 200 µM in assay [1], more than 200 µM in assay [2] and more than 75 µM in assay [3].

Turning to `C1=Nc2sc3c(c2C2=NCCN12)CCN(Cc1ccccc1)C3` [9-Benzyl-2,3,8,9,10,11-hexahydro-imidazo[1,2-c]pyrido[4′,3′:4,5]thieno[3,2-e]pyrimidine (13)], the half-inhibitory concentration (IC50) in assay [1] was 21.8 µM; in assay [2], 89.9 µM; in assay [3], 3.09 µM. Besides, in assay [3], the Ki is 2.36 µM.

In the case of `C1=Nc2sc3c(c2C2=NCCCN12)CCCC3` [3,4,9,10,11,12-Hexahydro-2H-benzothieno[3,2-e]pyrimido[1,2-c]pyrimidine (12)], the concentration for half-maximal inhibition (IC50) in assay [1] is 20.5 µM; in assay [2], 131 µM; in assay [3], 2.26 µM. In assay [3], the affinity corresponds to a Ki of 1.92 µM.

Turning to `O=C1c2c(sc3c2CCN(Cc2ccccc2)C3)NC2=NCCN12` [8-Benzyl-2,3,6,7,8,9-hexahydro-imidazo[1,2-a]pyrido[4′,3′:4,5]thieno[2,3-d]pyrimidin-5(11H)-one (9)], the IC50 in assay [1] is 14.2 µM; in assay [2] it was more than 200 µM; in assay [3], 1.35 µM. In assay [3], this compound yielded an inhibition constant (Ki) of 1.55 µM.

With `C1=Nc2sc3c(c2C2=NCCN12)CCCC3` [2,3,8,9,10,11-Hexahydro-benzothieno[3,2-e]imidazo[1,2-c]pyrimidine (11)], the values for the half-inhibitory concentration (IC50) in assay [1], in assay [2] and in assay [3] were 56 µM, 88 µM and 1.75 µM, respectively. Moreover, the Ki in assay [3] worked out at 1.32 µM.

Take `C1=Nc2sc3c(c2C2=NCCCN12)CCN(Cc1ccccc1)C3` [10-Benzyl-3,4,9,10,11,12-hexahydro-2H-pyrido[4′,3′:4,5]thieno[3,2-e]pyrimido[1,2-c]pyrimidin (14)]: the IC50 came to 62.5 µM in assay [1], 119 µM in assay [2] and 1.73 µM in assay [3]. Besides, the Ki in assay [3] worked out at 1.5 µM.

In the case of `O=C1c2c(sc3c2CCCC3)NC2=NCCCN12` [2,3,4,7,8,9,10,12-Octahydro-6H-benzothieno[2,3-d]pyrimido[1,2-a]pyrimidin-6-one (8)], the IC50 in assay [1] is more than 200 µM; in assay [2] it was more than 200 µM; in assay [3], more than 75 µM.

For `O=C1c2c(sc3c2CCN(Cc2ccccc2)C3)NC2=NCCCN12` [9-Benzyl-2,3,4,7,8,9,10,12-octahydro-6H-pyrido[4′,3′:4,5]thieno[2,3-d]pyrimido[1,2-a]pyrimidin-6-one (10)], the concentration for half-maximal inhibition (IC50) in assay [1] is 5.69 µM; in assay [2], 51.5 µM; in assay [3] it was 1.51 µM. The compound also yielded a Ki in assay [3] of 2.07 µM.
